Assays:
Assay type in all cases: in vivo
Details in all cases: 500 g/h, evaluated after 13 days
[1] = tested on: Abutilon theophrasti (ABUTH); test: Post-emergence herbicidal glasshouse test, Abutilon theophrasti (ABUTH)
Description: (§1) Seeds of a variety of test species are sown in standard soil in pots (Lolium perenne (LOLPE), Amaranthus retoflexus (AMARE), Abutilon theophrasti (ABUTH), Setaria faberi (SETFA), Echinochloa crus-galli (ECHCG), Ipomoea hederacea (IPOHE)). After cultivation for one day (pre-emergence) or after 8 days cultivation (post-emergence) under controlled conditions in a glasshouse (at 24/16° C., day/night; 14 hours light; 65% humidity), the plants are sprayed with an aqueous spray solution derived from the formulation of the technical active ingredient in acetone/water (50:50) solution containing 0.5% Tween 20 (polyoxyethelyene sorbitan monolaurate, CAS RN 9005-64-5). Compounds are applied at 500 g/h unless otherwise indicated. The test plants are then grown in a glasshouse under controlled conditions in a glasshouse (at 24/16° C., day/night; 14 hours light; 65% humidity) and watered twice daily. After 13 days for pre and post-emergence, the test is evaluated for the percentage damage caused to the plant. The biological activities are shown in the following table on a five point scale (5=80-100%; 4=60-79%; 3=40-59%; 2=20-39%; 1=0-19%).

Setaria faberi (SETFA) [2] = test: Post-emergence herbicidal glasshouse test, Setaria faberi (SETFA)
Description: as §1

[3] = tested on: Ipomoea hederacea (IPOHE); test: Post-emergence herbicidal glasshouse test, Ipomoea hederacea (IPOHE)
Description: as §1

[4] = tested on: Echinochloa crus-galli (ECHCG); test: Post-emergence herbicidal glasshouse test, Echinochloa crus-galli (ECHCG)
Description: as §1

[5] = tested on: Ipomoea hederacea (IPOHE); test: Pre-emergence herbicidal glasshouse test, Ipomoea hederacea (IPOHE)
Description: as §1

Setaria faberi (SETFA) [6] = test: Pre-emergence herbicidal glasshouse test, Setaria faberi (SETFA)
Description: as §1

[7] = tested on: Amaranthus retoflexus (AMARE); test: Post-emergence herbicidal glasshouse test, Amaranthus retoflexus (AMARE)
Description: as §1

[8] = tested on: Echinochloa crus-galli (ECHCG); test: Pre-emergence herbicidal glasshouse test, Echinochloa crus-galli (ECHCG)
Description: as §1

[9] = tested on: Abutilon theophrasti (ABUTH); test: Pre-emergence herbicidal glasshouse test, Abutilon theophrasti (ABUTH)
Description: as §1

[10] = tested on: Amaranthus retoflexus (AMARE); test: Pre-emergence herbicidal glasshouse test, Amaranthus retoflexus (AMARE)
Description: as §1

Compound	POST Application ABUTH, percentage damage (five point scale) [1]	POST Application SETFA, percentage damage (five point scale) (Setaria faberi (SETFA) [2])	POST Application IPOHE, percentage damage (five point scale) [3]	POST Application ECHCG, percentage damage (five point scale) [4]	PRE Application IPOHE, percentage damage (five point scale) [5]	PRE Application SETFA, percentage damage (five point scale) (Setaria faberi (SETFA) [6])	POST Application AMARE, percentage damage (five point scale) [7]	PRE Application ECHCG, percentage damage (five point scale) [8]	PRE Application ABUTH, percentage damage (five point scale) [9]	PRE Application AMARE, percentage damage (five point scale) [10]
Cc1nnc(NC(=O)c2ccc(S(C)(=O)=O)c(N=CN(C)C(C)C)c2C)o1 [Compound 2.144]	5 (5=80-100%)	5 (5=80-100%)	4 (4=60-79%)	5 (5=80-100%)	3 (3=40-59%)	5 (5=80-100%)	5 (5=80-100%)	5 (5=80-100%)	5 (5=80-100%)	5 (5=80-100%)
CC(=Nc1c(C(F)(F)F)ccc(C(=O)Nc2nnc(C)o2)c1Cl)N(C)C [Compound 2.148]	5 (5=80-100%)	5 (5=80-100%)	3 (3=40-59%)	5 (5=80-100%)	5 (5=80-100%)	5 (5=80-100%)	5 (5=80-100%)	5 (5=80-100%)	5 (5=80-100%)	5 (5=80-100%)
Cc1c(C(=O)C2=C(O)CCCC2=O)ccc(C(F)(F)F)c1N=CN(C)C [Compound 3.017]	5 (5=80-100%)	5 (5=80-100%)	5 (5=80-100%)	5 (5=80-100%)	5 (5=80-100%)	4 (4=60-79%)	3 (3=40-59%)	5 (5=80-100%)	5 (5=80-100%)	5 (5=80-100%)
Cc1c(C(=O)C2=C(O)CCCC2=O)ccc(S(C)(=O)=O)c1N=CN(C)C [Compound 3.025]	5 (5=80-100%)	5 (5=80-100%)	5 (5=80-100%)	5 (5=80-100%)	4 (4=60-79%)	4 (4=60-79%)	5 (5=80-100%)	5 (5=80-100%)	5 (5=80-100%)	5 (5=80-100%)
CN(C)C=Nc1c(C(F)(F)F)ccc(C(=O)C2=C(O)CCCC2=O)c1Cl [Compound 3.049]	5 (5=80-100%)	5 (5=80-100%)	5 (5=80-100%)	5 (5=80-100%)	5 (5=80-100%)	5 (5=80-100%)	5 (5=80-100%)	5 (5=80-100%)	5 (5=80-100%)	5 (5=80-100%)
CN(C)C=Nc1c(S(C)(=O)=O)ccc(C(=O)C2=C(O)CCCC2=O)c1Cl [Compound 3.057]	5 (5=80-100%)	5 (5=80-100%)	5 (5=80-100%)	5 (5=80-100%)	5 (5=80-100%)	5 (5=80-100%)	5 (5=80-100%)	5 (5=80-100%)	5 (5=80-100%)	5 (5=80-100%)

From US11272709B2, “Amidine substituted benzoyl derivatives useful as herbicides” (Syngenta Participations AG, priority 2018, dated 2022)
